Several values for one entry are separate records, joined by “and”; a condition that tells them apart may be missing. Equal values may be shown once. Read-outs that look alike come from different tables or passages of the source. Each block holds one molecule with its values, some of them ahead of it.
Columns and labels:
[1] = target: AT1 receptor; assay: [125I]AII binding to AT1 receptor, rat adrenal cortical microsomes, in the presence of 10^-5 M EXP-655 (DuP 753-sensitive sites)
Description: (§1) Procedures for the preparation of adrenal cortical microsomes and details of the binding assays are described in Chiu et al. (1989) J. Pharmacol. Exp. Ther. 250:867-874. The same procedures and conditions were used for adrenal medullary microsomes. […] After 60 min. of incubation, the reaction was terminated by addition of cold assay buffer. The bound and free radioactivity were rapidly separated through glass-fiber filters, and the trapped radioactivity was determined by gamma counting.

[2] = target: T1, AT2 receptor (Rattus norvegicus, UniProt P35351); assay: [125I]AII binding to AT2 receptor, rat adrenal cortical microsomes, in the presence of 10^-5 M DuP 753 (DuP […]-insensitive sites)
T1 construct: AT1 and AT2 receptor subtypes in rat adrenal cortex microsomes; from tissue; host or cells: rat adrenal cortical microsomes (13,000-102,000 g)
T1 sequence (P35351 1-363): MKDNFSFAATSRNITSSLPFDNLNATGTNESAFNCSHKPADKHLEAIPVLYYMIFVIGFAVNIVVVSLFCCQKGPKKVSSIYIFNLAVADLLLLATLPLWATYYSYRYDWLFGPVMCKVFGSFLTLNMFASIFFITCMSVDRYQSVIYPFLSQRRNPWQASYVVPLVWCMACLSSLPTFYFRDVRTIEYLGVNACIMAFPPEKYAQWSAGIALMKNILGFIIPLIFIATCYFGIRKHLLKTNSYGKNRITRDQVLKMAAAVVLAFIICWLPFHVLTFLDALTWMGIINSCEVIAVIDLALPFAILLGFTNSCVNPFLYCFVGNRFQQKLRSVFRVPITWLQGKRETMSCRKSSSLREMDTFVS
Description: as §1

[3] = tested on: AII receptors of rat adrenal cortex; assay: Total specific [125I]AII binding to rat adrenal cortical microsomes
Description: After 60 min. of incubation, the reaction was terminated by addition of cold assay buffer. The bound and free radioactivity were rapidly separated through glass-fiber filters, and the trapped radioactivity was determined by gamma counting.

[4] = tested on: AII receptor subtypes of rat adrenal cortical membranes; assay: [125I]AII binding to rat adrenal cortical membranes with and without DTT pretreatment
Description: 102:685-696, except the above binding assay conditions were used.

[5] = in vivo; cited from earlier work
[6] = cited from earlier work; for effect on avoidance learning: IVT
[7] = cited from earlier work
[8] = injected into the dorsal neostriatum; cited from earlier work
[9] = tested on: chick chorioallantoic membrane; details: cited from earlier work
[10] = tested on: pial arterial dilation; details: rat cranial window, cited from earlier work
[11] = Blood pressure lowering in hypertensive animals (renal artery-ligated hypertensive rats); format: in vivo, rat; details: doses up to 30 mg/kg, IV
[12] = reported in U.S. Pat. No. 4,812,462; cited from earlier work
[13] = tested on: collagenase activity in cultured cardiac fibroblasts; details: cited from earlier work
[14] = target: T2, AII receptors of rat adrenal medulla (Rattus norvegicus, UniProt P35351); assay: [125I]AII binding to rat adrenal medullary microsomes; set-up: from tissue; host or cells: rat adrenal medullary microsomes; details: rat adrenal medulla
T2 sequence (P35351 1-363): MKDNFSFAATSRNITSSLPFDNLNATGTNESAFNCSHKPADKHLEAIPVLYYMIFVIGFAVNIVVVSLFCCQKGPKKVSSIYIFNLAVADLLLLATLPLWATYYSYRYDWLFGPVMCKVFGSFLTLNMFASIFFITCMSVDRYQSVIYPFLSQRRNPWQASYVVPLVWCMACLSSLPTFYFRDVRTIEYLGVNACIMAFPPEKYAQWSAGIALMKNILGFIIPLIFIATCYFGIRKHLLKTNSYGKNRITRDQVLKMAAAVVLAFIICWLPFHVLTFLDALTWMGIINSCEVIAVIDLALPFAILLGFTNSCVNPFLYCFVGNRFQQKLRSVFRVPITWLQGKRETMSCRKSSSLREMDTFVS
Description: as §1

[15] = tested on: potassium current in cultured neurones; details: cited from earlier work
[16] = tested on: AII receptors of rat adrenal cortex; format: binding; details: autoradiography; DuP 753 or EXP-655 at 10^-6 M
Description: (§2) Fresh tissue was frozen on powdered dry ice and stored at -70° C. until used. Sections were cut at 15 microns and thaw mounted onto gelatin subbed slides. […] Slides were placed under X-ray film (Kodak XAR-5) and exposed for 11/2 days before processing the film to produce the film autoradiograms. The slides were then fixed with paraformaldehyde vapor at 80° C. for two hours, dried under air, delipidated, and dipped in emulsion (Kodak NTB-2). The coated slides were exposed for 4-5 weeks, developed with Kodak D-19 and counter-stained with hemotoxylin-eosin to view the histology.

[17] = tested on: AII receptors of rat adrenal medulla; assay: [125I]AII binding to rat adrenal medullary microsomes; details: rat adrenal medullary microsomes; for binding resistant to displacement: of total binding, 60 min
Description: as §1

[18] = tested on: rabbit aorta; assay: AII-induced rabbit aortic contractions; details: at concentrations of up to 10^-5 M
[19] = tested on: AII binding sites in the brain; assay: Distribution of AII binding sites in brain slices
Description: as §2

[20] = target: T2, AII receptors of rat adrenal medulla; details: autoradiography; DuP 753 or EXP-655 at 10^-6 M
Description: as §2

[21] = tested on: AII receptors of rat adrenal cortex; details: reported in U.S. Pat. No. 4,812,462; cited from earlier work
[22] = tested on: trypsin activated collagenase in rat heart myocytes; details: cited from earlier work
[23] = tested on: potassium stimulated release of [3H]ACh; details: in vitro; cited from earlier work
[24] = tested on: AII binding sites of rat aortic smooth muscle cells; assay: AII receptor binding in rat aortic smooth muscle cells
[25] = rat adrenal cortex microsomes, in the presence of 10^-5 M EXP-655, read-out: IC50 AT1

IC50 [1, 25]: > 10000 nM
IC50 [2]: 60 nM
Molecule: COc1ccc(-c2cccc3c2CC(C(=O)O)N(C(=O)C(c2ccccc2)c2ccccc2)C3)cc1C (stereo not shown) [Example 25]

IC50 [1, 25]: > 10000 nM
IC50 [2]: 70 nM
Molecule: O=C(O)C1Cc2cc(Oc3ccccc3)ccc2CN1C(=O)C(c1ccccc1)c1ccccc1 (stereo not shown) [Example 32, 2-Diphenylacetyl-6-phenoxy-1,2,3,4-tetrahydroisoquinoline-3-carboxylic acid]

preference for one AII receptor subtype relative to the other ([1]; AT1 vs AT2): no preference
concentration giving complete displacement of AII ([3]; rat adrenal cortical microsomes): 100 nM
IC50 ([3]; rat adrenal cortical microsomes, read-out: IC50, monophasic): 1 nM
effect of DTT on inhibition of AII binding ([4]; 5 mM DTT): not significantly altered by DTT
Molecule: CNCC(=O)N[C@@H](CCCN=C(N)N)C(=O)N[C@H](C(=O)N[C@@H](Cc1ccc(O)cc1)C(=O)N[C@H](C(=O)N[C@@H](Cc1cnc[nH]1)C(=O)N1CCC[C@H]1C(=O)N[C@@H](C)C(=O)O)C(C)C)C(C)C [Saralasin]

Molecule: NCCCC[C@H](OP(=O)(O)CCCCc1ccccc1)C(=O)N1CCC[C@H]1C(=O)O [SQ 29852]
memory of previously learned tasks [5]: protective effects on memory of previously learned tasks

Molecule: C[C@H](CS)C(=O)N1CCC[C@H]1C(=O)O [captopril]
effect on avoidance learning [6]: prevented the renin-induced avoidance disruption
scopolamine-induced disruption of performance ([7]; daily treatment): prevented
light/dark habituation performance, rate of acquisition ([7]; subchronic treatment): increased the rate of acquisition

Molecule: NC(=O)[C@@H]1CCCN1C(=O)[C@H](Cc1cnc[nH]1)NC(=O)[C@@H]1CCC(=O)N1 [thyrotropin releasing hormone]
effect on retention of PA response [8]: no effect

sensitivity of AT2 receptor to DTT [2]: resistant to DTT inactivation
Molecule: O[C@H](CS)[C@H](O)CS (racemic) [DTT, dithiothreitol]
sensitivity of AT1 receptor to DTT [1]: particularly sensitive to inactivation by DTT

Molecule: CGP42112A
block of angiotensin II-induced increase in microvascular density / angiogenesis [9]: block the increase in microvascular density

Molecule: Cc1cc(Cn2cnc3c2CC(C(=O)O)N(C(=O)C(c2ccccc2)c2ccccc2)C3)ccc1N (stereo not shown) [EXP-655]
block of pial arterial/arteriolar dilation ([10]; listed as EXP 655): shown to block
lowering blood pressure [11]: inactive
antihypertensive activity as reported [12]: antihypertensive agent
IC50 [1, 25]: ~300000 nM and 300000 nM
IC50 ([1]; rat adrenal cortex, read-out: inhibitory constant IC50, AT1 site): ~300000 nM
block of effect to inhibit collagenase activity [13]: shown to block
inhibition of AII binding [14]: 90%
block of effect to increase potassium current [15]: shown to block
inhibition of the total specific AII binding ([3]; at 3×10^-5 M, rat adrenal cortical microsomes): 20%
inhibition of total AII binding ([3]; rat adrenal cortex): 20%
block of angiotensin II-induced increase in microvascular density / angiogenesis [9]: shown to block
labeling over the adrenal cortex [16]: no apparent effect
binding resistant to displacement [17]: 10%
antagonizing AII-induced rabbit aortic contractions [18]: inactive
sensitivity of AII binding sites in the brain [19]: the majority of AII binding sites in the brain are DTT-insensitive, EXP-655-sensitive
labeling of the adrenal medulla [20]: almost totally eliminated
affinity for AII receptors as reported [21]: high affinity for AII receptors

Molecule: Cc1cc(Cn2cnc3c2CC(C(=O)O)N(C(=O)C(c2ccccc2)c2ccccc2)C3)ccc1N (stereo not shown) [PD123177]
block of pial arterial/arteriolar dilation [10]: block the pial arterial dilation
block of angiotensin II induced inhibition of trypsin activated collagenase [22]: block the angiotensin II induced inhibition of trypsin activated collagenase

Molecule: AI: AI (compared with AII) (DRVYIHPFHL; Angiotensin-1; UniProt P01019 25-34, looked up)
effect on potassium-stimulated release of ACh [23]: not AI

Molecule: AII: octapeptide hormone which is a component of the renin-angiotensin system (DRVYIHPF; Angiotensin-2; UniProt P01019 25-32, looked up)
effect on retention of PA response [8]: disruption in retention of a PA response
labeling over the adrenal cortex [16]: potently inhibited the labeling
labeling of the adrenal medulla [20]: potently inhibited the labeling
enhancement of inhibitory potency by DTT ([4]; 5 mM DTT): 2.5 fold
IC50 ([4]; read-out: IC50 in the absence of DTT, without DTT): 1 nM
effect on basal levels of ACh release [23]: without effects on basal levels
effect on potassium-stimulated release of ACh [23]: reduced potassium-stimulated release of ACh

Molecule: lysine-8-vasopressin
effect on retention of PA response [8]: no effect

Molecule: CCCCc1nc(Cl)c(CO)n1Cc1ccc(-c2ccccc2-c2nn[nH]n2)cc1 [DuP 753]
sensitivity of AII binding sites, rat aortic smooth muscle cells [24]: primarily the DuP 753-sensitive AII binding sites (AT1)
inhibition of AII binding [14]: essentially inactive as an antagonist
plateau of constant binding ([3]; over a two-log concentration increase, 60 min): about 28 % of the total receptor-bound AII
inhibition of total AII binding ([3]; rat adrenal cortex): 80%
IC50 ([3]; rat adrenal cortex, read-out: IC50 on the sensitive sites): ~5 nM
IC50 ([3]; rat adrenal cortical microsomes, DuP 753-sensitive site, read-out: approximated IC50, first site of biphasic displacement): ~5 nM
labeling over the adrenal cortex [16]: significantly reduced
inhibition of binding ([17]; below 1×10^-6 M): 10%
binding resistant to displacement [17]: About 90%
labeling of the adrenal medulla [20]: not appreciably affected
effect of DTT on inhibition of AII binding ([4]; 5 mM DTT): essentially abolished in the presence of DTT

Molecule: [1-sarcosine, 8-threonine]angiotensin II
effect on potassium-stimulated release of ACh [23]: antagonized

B1: renin: an enzyme involved in endogenous AII biosynthesis (protein, UniProt P00797 67-406, looked up)
Renin: LTLGNTTSSVILTNYMDTQYYGEIGIGTPPQTFKVVFDTGSSNVWVPSSKCSRLYTACVYHKLFDASDSSSYKHNGTELTLRYSTGTVSGFLSQDIITVGGITVTQMFGEVTEMPALPFMLAEFDGVVGMGFIEQAIGRVTPIFDNIISQGVLKEDVFSFYYNRDSENSQSLGGQIVLGGSDPQHYEGNFHYINLIKTGVWQIQMKGVSVGSSTLLCEDGCLALVDTGASYISGSTSSIEKLMEALGAKKRLFDYVVKCNEGPTLPDISFHLGGKEYTLTSADYVFQESYSSKKLCTLAIHAMDIPPPTGPTWALGATFIRKFYTEFDRRNNRIGFALAR
effect on avoidance learning [6]: disruption of avoidance learning
AII level in CSF after renin ([6]; increased from 40, renin IVT): about 5000 fmol per mL
